In ChEMBL document CHEMBL1156695, “The novel primaquine derivatives of N-alkyl, cycloalkyl or aryl urea: synthesis, cytostatic and antiviral activity evaluations” (Eur J Med Chem, 2008):
Activity calls are given as the source filed them. The rule behind the calls is not given here.

What was measured:
[1] = Cytostatic activity against human WI38 cells after 72 hrs by MTT assay; type: cell-based; conditions: WI-38, 72 h
Human betaherpesvirus 5 [2] = assay: Antiviral activity against HCMV AD169 infected in HEL cells assessed as reduction of virus-induced cytopathogenicity after 3 days; type: functional, organism-based; conditions: Human betaherpesvirus 5, AD169, HEL, 72 h
Human betaherpesvirus 5 [3] = assay: Antiviral activity against HCMV Davis infected in HEL cells assessed as reduction of virus-induced cytopathogenicity after 3 days; type: functional, organism-based; conditions: Human betaherpesvirus 5, Davis, 72 h
[4] = Cytotoxicity against HEL cells assessed as change in cell morphology; type: cell-based; conditions: human
[5] = Cytotoxicity against HEL cells assessed as reduction in cell growth; type: cell-based; conditions: human
Human alphaherpesvirus 1 = assay: Antiviral activity against HSV1 infected in HEL cells assessed as reduction of virus-induced cytopathogenicity; type: functional, organism-based
Human alphaherpesvirus 2 = assay: Antiviral activity against HSV2 infected in HEL cells assessed as reduction of virus-induced cytopathogenicity; type: functional, organism-based
[6] = system: Vesicular stomatitis virus; assay: Antiviral activity against vesicular stomatitis virus infected in HEL cells assessed as reduction of virus-induced cytopathogenicity; type: functional, organism-based
[7] = system: Mammalian orthoreovirus 1; assay: Antiviral activity against Reovirus 1 infected in african green monkey Vero cells assessed as reduction of virus-induced cytopathogenicity; type: functional, organism-based
Human respirovirus 3 = assay: Antiviral activity against parainfluenza virus 3 infected in african green monkey Vero cells assessed as reduction of virus-induced cytopathogenicity; type: functional, organism-based
Sindbis virus = assay: Antiviral activity against Sindbis virus infected in african green monkey Vero cells assessed as reduction of virus-induced cytopathogenicity; type: functional, organism-based
Coxsackievirus B4 [8] = assay: Antiviral activity against Coxsackievirus B4 infected in african green monkey Vero cells assessed as reduction of virus-induced cytopathogenicity; type: functional, organism-based
Punta Toro virus = assay: Antiviral activity against Punta Toro virus infected in african green monkey Vero cells assessed as reduction of virus-induced cytopathogenicity; type: functional, organism-based
[9] = system: Vesicular stomatitis virus; assay: Antiviral activity against vesicular stomatitis virus infected in HeLa cells assessed as reduction of virus-induced cytopathogenicity; type: functional, organism-based
Coxsackievirus B4 [10] = assay: Antiviral activity against Coxsackievirus B4 infected in HeLa cells assessed as reduction of virus-induced cytopathogenicity; type: functional, organism-based
[11] = system: Respiratory syncytial virus; assay: Antiviral activity against respiratory syncytial virus infected in HeLa cells assessed as reduction of virus-induced cytopathogenicity; type: functional, organism-based
L1210 = assay: Cytostatic activity against mouse L1210 cells after 72 hrs by MTT assay; type: functional, cell-based; conditions: L1210, 72 h
CCRF-CEM = assay: Cytostatic activity against human CEM cells after 72 hrs by MTT assay; type: functional, cell-based
[12] = Cytostatic activity against human Molt4/C8 cells after 72 hrs by MTT assay; type: functional, cell-based; conditions: MOLT-4, 72 h
HeLa = assay: Cytostatic activity against human HeLa cells after 72 hrs by MTT assay; type: functional, cell-based
MIA PaCa-2 = assay: Cytostatic activity against human MiaPaCa2 cells after 72 hrs by MTT assay; type: functional, cell-based; conditions: MIA PaCa-2, 72 h
SW-620 = assay: Cytostatic activity against human SW620 cells after 72 hrs by MTT assay; type: functional, cell-based; conditions: SW-620, 72 h
MCF7 = assay: Cytostatic activity against human MCF7 cells after 72 hrs by MTT assay; type: functional, cell-based; conditions: MCF7, 72 h
NCI-H460 = assay: Cytostatic activity against human H460 cells after 72 hrs by MTT assay; type: functional, cell-based; conditions: NCI-H460, 72 h

Compound | IC50 [1] | EC50 (Human betaherpesvirus 5 [2]) | EC50 (Human betaherpesvirus 5 [3]) | MCC [4] | CC50 [5] | Activity (Human alphaherpesvirus 1) | Activity (Human alphaherpesvirus 2) | Activity [6] | Activity [7] | Activity (Human respirovirus 3) | Activity (Sindbis virus) | Activity (Coxsackievirus B4 [8]) | Activity (Punta Toro virus) | Activity [9] | Activity (Coxsackievirus B4 [10]) | Activity [11] | IC50 (L1210) | IC50 (CCRF-CEM) | IC50 [12] | IC50 (HeLa) | also measured
COc1cc(NC(C)CCCNC(=O)N(C2CCCCC2)C2CCCCC2)c2ncccc2c1 (configuration not stated) | 18 µM | > 0.8 µM | > 0.8 µM | 4 µM | 27 µM | inactive | inactive | inactive | inactive | inactive | inactive | inactive | inactive | inactive | inactive | inactive | 15 µM | 13 µM | 36 µM | 23 µM | IC50 (MIA PaCa-2): 17 µM; IC50 (SW-620): 15 µM; IC50 (MCF7): 9 µM; IC50 (NCI-H460): 21 µM
COc1cc(NC(C)CCCNC(=O)NC(c2ccccc2)c2ccccc2)c2ncccc2c1 (configuration not stated) | > 100 µM | > 100 µM | > 100 µM | > 100 µM | > 100 µM | inactive | inactive | inactive | inactive | inactive | inactive | inactive | inactive | inactive | inactive | inactive | > 500 µM | 142 µM | ≥ 500 µM | 100 µM | IC50 (MIA PaCa-2): 100 µM; IC50 (SW-620): 58 µM; IC50 (MCF7): > 100 µM; IC50 (NCI-H460): > 100 µM
COc1cc(NC(C)CCCNC(=O)NCc2ccncc2)c2ncccc2c1 (configuration not stated) | 10 µM | 13.4 µM | 1.2 µM | 100 µM | 72 µM | inactive | inactive | inactive | inactive | inactive | inactive | inactive | inactive | inactive | inactive | inactive | 3 µM | 2.9 µM | 24 µM | 18 µM | IC50 (MIA PaCa-2): 20 µM; IC50 (SW-620): 2 µM; IC50 (MCF7): 30 µM; IC50 (NCI-H460): 48 µM
Nc1ccn(C[C@@H](CO)OCP(=O)(O)O)c(=O)n1 [CIDOFOVIR] | – | – | – | > 1270 µM | – | – | – | – | – | – | – | – | – | – | – | – | – | – | – | – | –
COc1cc(NC(C)CCCNC(=O)NCCc2ccccc2)c2ncccc2c1 (configuration not stated) | > 100 µM | 12.6 µM | 2.9 µM | > 100 µM | 56 µM | inactive | inactive | inactive | inactive | inactive | inactive | inactive | inactive | inactive | inactive | inactive | 24 µM | 34 µM | 45 µM | > 100 µM | IC50 (MIA PaCa-2): 30 µM; IC50 (SW-620): 32 µM; IC50 (MCF7): 27 µM; IC50 (NCI-H460): 54 µM
COc1cc(NC(C)CCCNC(=O)NC2CCCCC2)c2ncccc2c1 (configuration not stated) | > 100 µM | 53 µM | 10.5 µM | 100 µM | 94 µM | inactive | inactive | inactive | inactive | inactive | inactive | inactive | inactive | inactive | inactive | inactive | 23 µM | 36 µM | 50 µM | > 100 µM | IC50 (MIA PaCa-2): 38 µM; IC50 (SW-620): 49 µM; IC50 (MCF7): 41 µM; IC50 (NCI-H460): 77 µM
COc1cc(NC(C)CCCNC(=O)NC2CCCC2)c2ncccc2c1 (configuration not stated) | 29 µM | > 20 µM | 12 µM | 100 µM | 56 µM | inactive | inactive | inactive | inactive | inactive | inactive | inactive | inactive | inactive | inactive | inactive | 41 µM | 41 µM | 44 µM | 21 µM | IC50 (MIA PaCa-2): 19 µM; IC50 (SW-620): 19 µM; IC50 (MCF7): 30 µM; IC50 (NCI-H460): 25 µM
COc1cc(NC(C)CCCNC(=O)n2nnc3ccccc32)c2ncccc2c1 (configuration not stated) [PRIMAQUINE BENZOTRIAZOLIDE] | > 100 µM | > 100 µM | > 30 µM | > 100 µM | 72 µM | inactive | inactive | inactive | inactive | inactive | inactive | inactive | inactive | inactive | inactive | inactive | 125 µM | > 100 µM | 74 µM | 71 µM | IC50 (MIA PaCa-2): 84 µM; IC50 (SW-620): > 100 µM; IC50 (MCF7): > 100 µM; IC50 (NCI-H460): > 100 µM
COc1cc(NC(C)CCCNC(=O)NCC2CCCCC2)c2ncccc2c1 (configuration not stated) | > 100 µM | 15.3 µM | 7.6 µM | 100 µM | 74 µM | inactive | inactive | inactive | inactive | inactive | inactive | inactive | inactive | inactive | inactive | inactive | 22 µM | 22 µM | 53 µM | > 100 µM | IC50 (MIA PaCa-2): 60 µM; IC50 (SW-620): 61 µM; IC50 (MCF7): 61 µM; IC50 (NCI-H460): > 100 µM
CCN(CC)C(=O)NCCCC(C)Nc1cc(OC)cc2cccnc12 (configuration not stated) | > 100 µM | 49 µM | 26 µM | > 100 µM | > 100 µM | inactive | inactive | inactive | inactive | inactive | inactive | inactive | inactive | inactive | inactive | inactive | 207 µM | 142 µM | 155 µM | 58 µM | IC50 (MIA PaCa-2): > 100 µM; IC50 (SW-620): > 100 µM; IC50 (MCF7): > 63 µM; IC50 (NCI-H460): > 100 µM
COc1cc(NC(C)CCCNC(=O)NCc2ccccc2)c2ncccc2c1 (configuration not stated) | 35 µM | > 20 µM | 7.6 µM | 100 µM | 66 µM | inactive | inactive | inactive | inactive | inactive | inactive | inactive | inactive | inactive | inactive | inactive | 22 µM | 18 µM | 21 µM | 15 µM | IC50 (MIA PaCa-2): 21 µM; IC50 (SW-620): 9 µM; IC50 (MCF7): 25 µM; IC50 (NCI-H460): 30 µM
Nc1nc(O)c2ncn(COC(CO)CO)c2n1 [GANCICLOVIR] | – | – | – | > 1580 µM | – | – | – | – | – | – | – | – | – | – | – | – | – | – | – | – | –
